# Assay results as given in patent EP0605261B1, “Use of a flavone derivative as taste modifier and a method of modifying taste” (SAN-EI GEN F.F.I., INC., priority 1992, dated 1994).
# Experiments:
# Type in all cases: in vivo
# [1] = Sensory test (limiting method): enhancing the sourness of acid sugar solution; set-up: key: (equivalent citric acid content / citric acid content with flavone) × 100; details: citric acid 1.000 (g), flavone derivative (I) 0.00001 (g), 8 panellers; for Value of enhancing the sourness Ascending system: ascending system (from low concentration); for Value of enhancing the sourness Descending system: descending system (from high concentration)
# Procedure: Compounds 1 to 11 of the flavone derivative (I) were used as a taste modifier to prepare acid sugar solution having compositions as follows:
# As a control, 21 types of acid sugar solutions are used. In the control, the flavone derivative (I) is removed from the above composition and the content of citric acid is varied from 1.000 g to 1.500 g by 0.025 g.
# Sensory tests were carried out by 8 trained panellers in accordance with a limiting method described in the Hand Book of Sensory evaluation, edited by Research Committee of sensory evaluation, Union of Japanese Scientists and Engineers, p.398 (1973) in use of acid sugar solutions containing respective flavone derivatives (I) and another acid sugar solutions having a various content of citric acid.
# As for the content of citric acid, two types sensory tests were conducted, one was an ascending system (testing from solution with low concentration) and another was a descending system (testing from solution with high concentration).
# The sensory evaluation was made by a value of enhancing the sourness. The value of enhancing the sourness was calculated by the following formula based on the content of citric acid in acid sugar solutions with varied concentration of citric acid, which has an equivalent stimulation with an acid sugar solution containing the flavone derivative (I) Value of enhancing the sourness = (content of citric acid in acid sugar solution sensed as an equivalent stimulation/content of citric acid in acid sugar solution containing the flavone derivative (I)) x 100 [formula]
# [2] = Sensory test: refreshness, its continuity and quality of taste (refreshing drink); details: 0.2 g flavor composition H (0.000001(g) Compound 11) vs G, 8 panellers
# Procedure: Compound 11 of the flavone derivative (I) was used as a taste modifier. Refreshing drink containing the above flavor composition G (control) or H (containing the flavone derivative (I)) was prepared.
# First, 10 g of fructose/glucose sugar solution, 0.1 g of citric acid (crystal), 0.2 g of the flavor composition G and 88.5 g of water were mixed to dissolve, followed by heating up to 93 °C, immediately transmitted to a bottle and sealed. Then, it was cooled in water, thereby preparing flavone derivative (I) free refreshing drink.
# Alternatively, flavone derivative (I)-containing refreshing drink was prepared by the same method using the flavor composition H instead of the flavor composition G.
# Sensory tests for obtained refreshing drink were carried out by 8 panellers comprised of 6 males and 2 females at the age from 20 to 40.
# [3] = Sensory test: body and deliciousness (casing boiled fish paste); details: 0.0001 (g) Compound 11, 8 panellers
# Procedure: Compound 11 of the flavone derivative (I) was used as a taste modifier. Ground fish meat, salt, starch, water and the flavone derivative (I) were mixed. In accordance with a general method, casing boiled fish paste containing the flavone derivative (I) was prepared. Alternatively, flavone derivative (I) free casing boiled fish paste was prepared by the same method as a control.
# Sensory tests for obtained casing boiled fish paste were conducted by 8 panellers comprised of 6 males and 2 females at the age from 20 to 40.
# [4] = Sensory test: sweetness and savor (ice cream); details: 0.00001 w/w%, 10 panellers
# Procedure: Compound 2 of the flavone derivative (I) was used as a taste modifier. Ice cream containing 5 w/w% of sugar, 12 w/w% of fructose condensed milk and 10 w/w% of thick malt syrup as sweetening agents was used as a control. The control and ice cream containing 0.00001 w/w% of the flavone derivative (I) were made by a general method. Sensory tests for the sweetness and the savor were conducted by 10 trained panellers comprised of 6 males and 4 females at the age from 20 to 40.
# [5] = Sensory test: stimulative smell associated with acetic acid and viscosity (toothpaste with karaya gum); details: 0.0000001 part by weight of Compound 3 to 1 part, 9 panellers
# Procedure: Sorbitol was heated to 70°C, followed by adding sodium saccharine and silica slowly thereto and by stirring well. Then, water previously heated to 70°C, karaya gum, sodium lauryl sulfate and sodium hydroxide were added sequentially while stirring. Finally, flavor was added thereto to prepare toothpaste as a control. Alternatively, flavone derivative (I)-containing toothpaste was prepared by adding 0.0000001 part by weight of Compound 3 of the flavone derivative (I) to 1 part by weight of similarly prepared toothpaste.
# Sensory tests for obtained toothpaste were conducted by 9 panellers comprised of 6 males and 3 females.
# [6] = Five points evaluation test: saltiness and brackish taste modifying effect, salt / sodium L-glutamate solution; details: average points of 5 panellers (2: no changes); for Saltiness Modifying Effect: Salt
# Procedure: Compound 3 of the flavone derivative (I) was used as a taste modifier. […] Alternatively, sample solutions were prepared by adding 1, 0.1, 0.01 ppm of Compound 3 to the standard solutions, respectively.
# Sensory tests were conducted by 5 trained panellers to examine saltiness modifying effect (so called saltiness adapting effect) and brackish taste modifying effect.
# (§1) Each sample solution was evaluated assuming that the standard solution has the point of 2.
# [7] = Sensory test: enhancing the sourness (refreshing drink); details: 0.0002 (g) Compound 4, vs control, 8 panellers
# Procedure: Compound 4 of the flavone derivative (I) was used as a taste modifier. Raw materials described below were mixed and stirred to dissolve. The solution was heated up to 93°C, immediately transmitted to a bottle and sealed. Then, it was cooled in water, thereby preparing refreshing drink having compositions as follows. A control was prepared by eliminating the compound 4 from the raw materials.
# Sensory tests of obtained refreshing drink were carried out by 8 panellers.
# [8] = Sensory test: sweetness and savor (sponge cake); details: 22 w/w% white sugar, 0.0001 w/w%, 10 panellers
# Procedure: Compound 4 of the flavone derivative (I) was used as a taste modifier and 22 w/w% of white sugar was used as a sweetening agent. In accordance with a general method, sponge cake containing 0.0001 w/w% of the flavone derivative (I) and flavone derivative (I) free sponge cake were prepared. Sensory tests for the sweetness and the savor were conducted by 10 panellers comprised of 6 males and 4 females at the age from 20 to 40.
# [9] = Five points evaluation test: saltiness and savor modifying effect (toothpaste containing salt); details: average points of 5 panellers (2: no changes)
# Procedure: Compound 7 of the flavone derivative (I) was used as a taste modifier. To commercially available toothpaste (containing salt), the flavone derivative (I) was added in the amount of 1, 0.1 and 0.01 ppm respectively to prepare samples. Sensory tests were carried out for modifying effects of the saltiness and the savor of toothpaste. Flavone derivative (I) free toothpaste was used as a standard substance.
# The sensory tests were conducted by 5 trained panellers to examine saltiness modifying effect (so called saltiness adapting effect) and savor modifying effect.
# as §1
# [10] = Sensory test: savor (boiled fish paste); details: 1.5 w/w% glycine, 0.0001 w/w%, 10 panellers
# Procedure: Compound 7 of the flavone derivative (I) was used as a taste modifier. In accordance with a general method, boiled fish paste containing 0.0001 w/w% of the flavone derivative (I) and flavone derivative (I) free boiled fish paste were prepared in use of 1.5 w/w% glycine. Sensory tests for the savor were conducted by 10 panellers comprised of 6 males and 4 females at the age from 20 to 40.
# [11] = Sensory test: stimulative smell associated with acetic acid (mayonnaise); details: 0.001 mg of Compound 8 added, 9 panellers
# Procedure: Compound 8 of the flavone derivative (I) was used as a taste modifier. First, sugar, sodium glutamate and carrageenan were dissolved in water, followed by adding raw vinegar, salt and yolk. Then, corn salad oil was added portionwise while stirring, and emulsified by the use of colloid mill, thereby preparing mayonnaise as a control. Alternatively, flavone derivative (I)-containing mayonnaise was prepared by adding 0.001 mg of Compound 8 to mayonnaise that was similarly prepared.
# Sensory tests for obtained mayonnaise were conducted by 9 panellers comprised of 6 males and 3 females.
compound,measurement,setting,value
"3,3',4',5,5',6,7,8-octamethoxyflavone [Compound 11]",Value of enhancing the sourness Ascending system,[1],125
same,Value of enhancing the sourness Descending system,[1],128
same,Continuity of refreshness: Those who sensed H additive is better,[2],8 number of people
same,Continuity of refreshness: Those who sensed no difference,[2],0 number of people
same,Quality of taste: Those who sensed H additive is better,[2],6 number of people
same,Quality of taste: Those who sensed no difference,[2],2 number of people
same,Refreshness: Those who sensed H additive is better,[2],7 number of people
same,Refreshness: Those who sensed no difference,[2],1 number of people
same,Body: Those who sensed no difference,[3],2 number of people
same,Body: Those who sensed the flavone derivative (I) additive is better,[3],6 number of people
same,Deliciousness: Those who sensed no difference,[3],1 number of people
same,Deliciousness: Those who sensed the flavone derivative (I) additive is better,[3],7 number of people
same,Quality of taste: Those who sensed no difference,[3],1 number of people
same,Quality of taste: Those who sensed the flavone derivative (I) additive is better,[3],7 number of people
"COc1ccc(-c2cc(=O)c3c(OC)c(OC)c(OC)c(OC)c3o2)cc1OC [Compound 2, 3',4',5,6,7,8-hexamethoxyflavone]",Value of enhancing the sourness Ascending system,[1],118
same,Value of enhancing the sourness Descending system,[1],123
same,"the sweetness and the savor, as sensed by all the panellers",[4],better than that of the control
"COc1ccc(-c2cc(=O)c3c(OC)c(OC)c(OC)c(OC)c3o2)cc1 [Compound 3, 4',5,6,7,8-pentamethoxyflavone]",Value of enhancing the sourness Ascending system,[1],120
same,Value of enhancing the sourness Descending system,[1],123
same,Stimulative smell: Those who sensed no difference,[5],1 number of people
same,Stimulative smell: Those who sensed the flavone derivative (I) additive is reduced,[5],8 number of people
same,Brackish Taste Modifying Effect,"[6]; 0.01 ppm, Salt 1 %",3.6
same,Brackish Taste Modifying Effect,"[6]; 0.01 ppm, Salt 3 %",3.6
same,Brackish Taste Modifying Effect,"[6]; 0.01 ppm, Salt 5 %",3.4
same,Brackish Taste Modifying Effect,"[6]; 0.01 ppm, Salt 10 %",3.0
same,Saltiness Modifying Effect,"[6]; 0.01 ppm, sodium L-glutamate 1 %",3.6
same,Saltiness Modifying Effect,"[6]; 0.01 ppm, sodium L-glutamate 3 %",3.8
same,Saltiness Modifying Effect,"[6]; 0.01 ppm, sodium L-glutamate 5 %",3.4
same,Saltiness Modifying Effect,"[6]; 0.01 ppm, sodium L-glutamate 10 %",3.0
same,Brackish Taste Modifying Effect,"[6]; 0.10 ppm, Salt 1 %",4.0
same,Brackish Taste Modifying Effect,"[6]; 0.10 ppm, Salt 3 %",3.8
same,Brackish Taste Modifying Effect,"[6]; 0.10 ppm, Salt 5 %",3.6
same,Brackish Taste Modifying Effect,"[6]; 0.10 ppm, Salt 10 %",3.4
same,Saltiness Modifying Effect,"[6]; 0.10 ppm, sodium L-glutamate 1 %",4.0
same,Saltiness Modifying Effect,"[6]; 0.10 ppm, sodium L-glutamate 3 %",3.8
same,Saltiness Modifying Effect,"[6]; 0.10 ppm, sodium L-glutamate 5 %",3.6
same,Saltiness Modifying Effect,"[6]; 0.10 ppm, sodium L-glutamate 10 %",3.4
same,Brackish Taste Modifying Effect,"[6]; 1.00 ppm, Salt 1 %",4.4
same,Brackish Taste Modifying Effect,"[6]; 1.00 ppm, Salt 3 %",4.0
same,Brackish Taste Modifying Effect,"[6]; 1.00 ppm, Salt 5 %",4.0
same,Brackish Taste Modifying Effect,"[6]; 1.00 ppm, Salt 10 %",3.8
same,Saltiness Modifying Effect,"[6]; 1.00 ppm, sodium L-glutamate 1 %",4.4
same,Saltiness Modifying Effect,"[6]; 1.00 ppm, sodium L-glutamate 3 %",4.0
same,Saltiness Modifying Effect,"[6]; 1.00 ppm, sodium L-glutamate 5 %",4.0
same,Saltiness Modifying Effect,"[6]; 1.00 ppm, sodium L-glutamate 10 %",3.8
"COc1ccc(-c2cc(=O)c3c(OC)cc(OC)c(OC)c3o2)cc1OC [Compound 4, 3',4',5,7,8-pentamethoxyflavone]",Value of enhancing the sourness Ascending system,[1],117
same,Value of enhancing the sourness Descending system,[1],119
same,quality of taste,[7],significantly improved
same,taste of fruit juice and the sourness,[7],stronger than the control
same,"the sweetness and the savor, as sensed by all the panellers",[8],better than that of the control
"COc1ccc(-c2oc3c(OC)c(OC)cc(OC)c3c(=O)c2OC)cc1OC [Compound 7, 3,3',4',5,7,8-hexamethoxyflavone]",Value of enhancing the sourness Ascending system,[1],116
same,Value of enhancing the sourness Descending system,[1],119
same,Saltiness and Savor Modifying Effect: Saltiness,[9]; 0.01 ppm,2.2
same,Saltiness and Savor Modifying Effect: Savor,[9]; 0.01 ppm,2.2
same,Saltiness and Savor Modifying Effect: Saltiness,[9]; 0.10 ppm,2.6
same,Saltiness and Savor Modifying Effect: Savor,[9]; 0.10 ppm,2.4
same,Saltiness and Savor Modifying Effect: Saltiness,[9]; 1.00 ppm,3.4
same,Saltiness and Savor Modifying Effect: Savor,[9]; 1.00 ppm,3.0
same,"the savor, as sensed by all the panellers",[10],better than that of the control
"COc1ccc(-c2cc(=O)c3c(OC)cc(OC)cc3o2)cc1 [Compound 8, 4',5,7-trimethoxyflavone]",Value of enhancing the sourness Ascending system,[1],118
same,Value of enhancing the sourness Descending system,[1],120
same,Stimulative smell: Those who sensed difference exists,[11],7 number of people
same,Stimulative smell: Those who sensed no difference,[11],2 number of people
